Test results from US7763707B2, “Use of ghrelin splice variant for treating cachexia and/or anorexia and/or anorexia-cachexia and/or malnutrition and/or lipodystrophy and/or muscle wasting and/or appetite-stimulation” (priority 2006, dated 2010).
Square brackets hold non-standard residues; d marks the D form. Ends that are not written are not given here. * marks the point of attachment. Octanoyl = CCCCCCCC(=O)*; Dap = NC[C@H](N)C(=O)O

Columns and labels:
[1] = Subcutaneous administration of acylated ghrelin splice variant: weight gain, food consumption, body composition in 129Sv mice; format: in vivo
Method: FIG. 1A is a line graph showing cumulative body weight gain of acylated ghrelin splice variant-treated (SEQ ID NOs: 2 and 5) 129Sv mice compared to vehicle-treated controls. Acylated ghrelin splice variant induces body weight gain in male wild-type mice (n=10 per group, P=0.0001). In mice treated once daily for two weeks with acylated ghrelin splice variant (0.8 mg/kg, subcutaneously), cumulative weight gain of the SEQ ID NO:2 group was 3.4 times more than the vehicle-injected control animals. Cumulative weight gain of the acylated SEQ ID NO:5 group was 2 times more than the vehicle-injected control animals. FIG. 1B is a line graph showing cumulative food consumption of acylated ghrelin splice variant-treated (SEQ ID NOs: 2 and 5) 129Sv mice compared to vehicle-treated controls. […] Mice treated once daily for two weeks with acylated ghrelin splice variant (0.8 mg/kg, subcutaneously) ate 13% more than the vehicle-injected control animals (n=10 per group, P=0.004).
FIG. 2A is a line graph showing cumulative body weight gain of acylated ghrelin splice variant-treated (SEQ ID NOs: 2 and 4) 129Sv mice and of unacylated SEQ ID NO:5 compared to vehicle-treated controls. Acylated ghrelin splice variants induces body weight gain in male wild-type mice (n=8 per group, P=0.0001). In mice treated once daily for seven days with acylated or un-acylated ghrelin splice variant (7.2 mg/kg, subcutaneously), cumulative weight gain of the SEQ ID NO:2 and SEQ ID NO:4 group was 2.2 times more than the vehicle-injected control animals. Cumulative weight gain of the un-acylated SEQ ID NO:5 group was 25% less than the vehicle-injected control animals. FIG. 2B is a line graph showing cumulative food consumption of acylated ghrelin splice variant-treated (SEQ ID NOs: 2 and 4) 129Sv mice and of unacylated SEQ ID NO:5 compared to vehicle-treated controls. […] Mice treated once daily for seven days with acylated ghrelin splice variants (7.2 mg/kg, subcutaneously) ate 18% more than the vehicle-injected control animals (n=8 per group). Mice treated once daily for seven days with SEQ ID NO:5 (7.2 mg/kg, subcutaneously) ate 2% less than the vehicle-injected control animals (n=8 per group).
FIG. 4 is a bar graph showing the change in body composition of acylated ghrelin splice variant-treated (SEQ ID NOs: 2 and 4) 129Sv mice and unacylated SEQ ID NO:5 treated mice compared to vehicle and ghrelin-treated controls. Effect of seven days daily subcutaneous treatment with saline, ghrelin or acylated ghrelin splice variant (7.2 mg/kg, subcutaneously) on fat and lean body mass as measured by NMR is shown.
Acylated ghrelin splice variant (20 μg (FIGS. 1A and 1B) or 180 μg (FIGS. 2A and 2B)) or the Vehicle (1.6% mannitol) were administered once daily for 14 successive days (FIGS. 1A and 1B) or 7 successive days (FIGS. 2A and 2B), via the subcutaneous (SC) route, to groups comprising n=10 (FIGS. 1A and 1B) or n=8 (FIGS. 2A and 2B) 129Sv male mice. […] All animals were subjected to terminal bleeding, under CO2 anesthesia, immediately prior to euthanasia. Terminal blood collection was performed serially as per animal number, and not as per group.
Biochemistry: Blood for biochemistry analysis was collected into non-coated pre-labeled tubes. The tubes were pre-labeled and contained the following information: Study number, group number, animal number and date. Following clotting, the blood from each animal was centrifuged, and the serum was collected into two pre-labeled tubes and submitted for analysis as follows: Serum, 250 μl, was kept at 2-8° C. until analysis. The samples were subjected to the following listed tests using a Hitachi 917 system: Creatinine, Total bilirubin, Glucose, Triglycerides, Cholesterol, HDL, LDL, Total protein, Globulin, Albumin, Urea, Potassium, Phosphorus, Calcium, Sodium, Chloride, sGOT, sGPT, ALP. Urinalysis: Urine was collected into pre-labeled tubes (as above) from all animals (where possible) prior and/or after euthanasia. […]

[2] = cited from earlier work
[3] = 129Sv male mice, 7.2 mg/kg subcutaneously once daily for seven days, n=8 per group
[4] = 129Sv male mice, 0.8 mg/kg subcutaneously once daily for two weeks, n=10 per group

Substance: un-acylated SEQ ID NO:5: 29 amino acid human ghrelin splice variant without acyl group (GSSFLSPEHQRVQVRPPHKAPHVVPALPL; listed as Homo sapiens)
- cumulative weight gain, less than the vehicle-injected control animals [1, 3]: 25%
- cumulative food consumption, less than the vehicle-injected control animals ([1]; 129Sv mice, 7.2 mg/kg subcutaneously once daily for seven days, n=8 per group): 2%

Substance: ghrelin: 28 amino acid peptide bearing an n-octanoyl side chain on the third serine (GSS(Octanoyl)FLSPEHQRVQQRKESKKPPAKLQPR; UniProt Q9UBU3 24-51, looked up)
- increase of food intake ([2]; infusion for 90 minutes, cancer cachexia patients): 30%
- increase of energy intake ([2]; subcutaneous injection of 3.6 nmol/kg prior to a meal): 27%
- effect of weight gain (lean vs fat mass) ([1]; Applicant's statement in the background): mainly on fat mass

Substance: SEQ ID NO:4: 24 amino acid human ghrelin splice variant having a 2,3-diaminopropionic acid (Dpr) residue in the third position, acylated (GS[Dap]FLSPEHQRVQVRPPHKAPHVV; also: Dpr3 acylated, acyl group not given here; listed as Homo sapiens)
- cumulative weight gain, times more than the vehicle-injected control animals [1, 3]: 2.2 times

Substance: GSS (CO—C7H15) FLSPEHQRVQVRPPHKAPH (GSS(Octanoyl)FLSPEHQRVQVRPPHKAPH; listed as Homo sapiens) [SEQ ID NO:2, 22 amino acid human ghrelin splice variant, acylated at position 3]
- cumulative weight gain, times more than the vehicle-injected control animals [1, 4]: 3.4 times
- cumulative weight gain, times more than the vehicle-injected control animals [1, 3]: 2.2 times

Substance: acylated SEQ ID NO:5: 29 amino acid human ghrelin splice variant, acylated at position 3 (GSSFLSPEHQRVQVRPPHKAPHVVPALPL; also: acylated at position 3 (acyl group not given here); listed as Homo sapiens)
- cumulative weight gain, times more than the vehicle-injected control animals [1, 4]: 2 times
